Test results as given in patent publication US20230374035A1, “RAS INHIBITORS” (Revolution Medicines, Inc., priority 2019, published 2023).

Experiments:
NCI-H358 (K-Ras G12C) = assay: CellTiter-Glo Cell Viability Assay; format: cell-based; conditions: Homo sapiens, NCI-H358, 120 h; H358, 5-day treatment
Experimental: Determination of Cell Viability in RAS Mutant Cancer Cell Lines
Protocol: CellTiter-Glo® Cell Viability Assay
Note—The following protocol describes a procedure for monitoring cell viability of K-Ras mutant cancer cell lines in response to a compound of the invention. Other RAS isoforms may be employed, though the number of cells to be seeded will vary based on cell line used.
Test compounds (132.5 nl) were directly dispensed into the assay plates containing cells. […] On day 5, assay plates and their contents were equilibrated to room temperature for approximately 30 minutes. […] Luminescence was measured using the PerkinElmer Enspire. Data were normalized by the following: (Sample signal/Avg. DMSO)*100. The data were fit using a four-parameter logistic fit.

NRAS Q61K = NRAS Q61K (Homo sapiens, UniProt P01111+P62937, Q61K); assay: Disruption of BRAF RBD interaction with Ras (FRET / MOA assay); format: biochemical; conditions: read-out: NRAS Q61K FRET data IC50
Chain of NRAS Q61K (P01111 whole entry Q61K): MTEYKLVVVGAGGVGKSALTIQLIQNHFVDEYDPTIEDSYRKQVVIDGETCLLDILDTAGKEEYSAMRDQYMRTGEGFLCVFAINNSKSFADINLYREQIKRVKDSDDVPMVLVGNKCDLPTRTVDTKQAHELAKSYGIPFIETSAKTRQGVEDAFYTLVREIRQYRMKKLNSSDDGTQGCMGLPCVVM
Chain of NRAS Q61K (P62937 whole entry): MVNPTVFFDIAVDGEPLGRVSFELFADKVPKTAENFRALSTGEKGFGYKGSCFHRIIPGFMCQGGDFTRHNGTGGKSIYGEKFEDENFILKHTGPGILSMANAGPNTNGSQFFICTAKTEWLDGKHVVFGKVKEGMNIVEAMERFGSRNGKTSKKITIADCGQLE
Experimental: (§1) Compound is present in plate wells as a 10-point 3-fold dilution series starting at a final concentration of 30 μM. […] Compounds that facilitate disruption of a Ras:RAF complex are identified as those eliciting a decrease in the TR-FRET ratio relative to DMSO control wells.
(§2) Note—The following protocol describes a procedure for monitoring disruption of K-Ras G12C (GMP-PNP) binding to BRAF^RBD by a compound of the invention. This protocol may also be executed substituting other Ras proteins or nucleotides.
(§3) The purpose of this biochemical assay was to measure the ability of test compounds to facilitate ternary complex formation between a nucleotide-loaded K-Ras isoform and Cyclophilin A; the resulting ternary complex disrupts binding to a BRAF^RBD construct, inhibiting K-Ras signaling through a RAF effector. Data is reported as IC50 values.
(§4) Compound was present in plate wells as a 10-point 3-fold dilution series starting at a final concentration of 30 μM. […] Compounds that facilitate disruption of a K-Ras:RAF complex were identified as those eliciting a decrease in the TR-FRET ratio relative to DMSO control wells.

NRAS Q61R = NRAS Q61R (Homo sapiens, UniProt P01111+P62937, Q61R); assay: as above; format: biochemical; conditions: read-out: NRAS Q61R FRET data IC50
Chain of NRAS Q61R (P01111 whole entry Q61R): as the sequence (P01111 whole entry Q61K) above, with K61R counted along it
Chain of NRAS Q61R (P62937 whole entry): as the sequence (P62937 whole entry) above
Experimental: as §1, §2, §3, §4

SMILES	IC50 (NCI-H358 (K-Ras G12C))	IC50 (NRAS Q61K)	IC50 (NRAS Q61R)
CCn1c(-c2cccnc2[C@H](C)OC)c2c3cc(ccc31)-c1csc(n1)C[C@H](NC(=O)[C@H](C(C)C)N(C)C(=O)N1CC(S(=O)(=O)N(C)C)C1)C(=O)N1CCC[C@H](N1)C(=O)OCC(C)(C)C2 (atropisomer, axis not shown) [Compound A551]	< 10 nM	10 to 100 nM	–
CCn1c(-c2cccnc2[C@H](C)OC)c2c3cc(ccc31)-c1csc(n1)C[C@H](NC(=O)[C@H](C(C)C)N(C)C(=O)N1CCOC3(COC3)C1)C(=O)N1CCC[C@H](N1)C(=O)OCC(C)(C)C2 (atropisomer, axis not shown) [Compound A475]	–	10 to 100 nM	10 to 100 nM
CCn1c(-c2cccnc2[C@H](C)OC)c2c3cc(ccc31)-c1csc(n1)C[C@H](NC(=O)[C@H](C(C)C)N(C)C(=O)N1CC3(CC(N4CC(F)C4)C3)C1)C(=O)N1CCC[C@H](N1)C(=O)OCC(C)(C)C2 (atropisomer, axis not shown) [Compound A457]	< 10 nM	10 to 100 nM	–
CCn1c(-c2cccnc2[C@H](C)OC)c2c3cc(ccc31)-c1cc(O)cc(c1)C[C@H](NC(=O)[C@H](C(C)C)N(C)C(=O)[C@@H]1CCN(C(=O)OC)C1)C(=O)N1CCC[C@H](N1)C(=O)OCC(C)(C)C2 (atropisomer, axis not shown) [Compound A365]	< 10 nM	–	–
CCn1c(-c2cccnc2[C@H](C)OC)c2c3cc(ccc31)-c1csc(n1)C[C@H](NC(=O)[C@H](C(C)C)N(C)C(=O)N1CCN(C(=O)C3CC3)CC1)C(=O)N1CCC[C@H](N1)C(=O)OCC(C)(C)C2 (atropisomer, axis not shown) [Compound A607]	< 10 nM	–	–
CO[C@@H](C)c1ncccc1-c1c2c3cc(ccc3n1CC(F)(F)F)-c1csc(n1)C[C@H](NC(=O)[C@H](C(C)C)N(C)C(=O)N1CC(N(C)C)C1)C(=O)N1CCC[C@H](N1)C(=O)OCC(C)(C)C2 [Compound A303]	< 10 nM	–	–
CCn1c(-c2cc(N3CCN(C)CC3)cnc2[C@H](C)OC)c2c3cc(ccc31)-c1csc(n1)C[C@H](NC(=O)[C@H](C(C)C)N(C)C(=O)[C@H]1CCCS1(=O)=O)C(=O)N1CCC[C@H](N1)C(=O)OCC(C)(C)C2 (atropisomer, axis not shown) [Compound A439]	< 10 nM	–	–
CCn1c(-c2cccnc2[C@H](C)OC)c2c3cc(ccc31)-c1cc(O)cc(c1)C[C@H](NC(=O)[C@H](C(C)C)N(C)C(=O)[C@@H]1OCC[C@@H]1c1ccccc1)C(=O)N1CCC[C@H](N1)C(=O)OCC(C)(C)C2 (atropisomer, axis not shown) [Compound A415]	–	10 to 100 nM	10 to 100 nM
CCn1c(-c2cccnc2[C@H](C)OC)c2c3cc(ccc31)-c1csc(n1)C[C@H](NC(=O)[C@H](C(C)C)N(C)C(=O)N1CCN3CCOCC3C1)C(=O)N1CCC[C@H](N1)C(=O)OCC(C)(C)C2 (some centres unmarked) [Compound A296]	< 10 nM	–	–
CCn1c(-c2cccnc2[C@H](C)OC)c2c3cc(ccc31)-c1csc(n1)[C@@H](OC)[C@H](NC(=O)[C@H](C(C)C)N(C)C(=O)N(C)C)C(=O)N1CCC[C@H](N1)C(=O)OCC(C)(C)C2 (atropisomer, axis not shown) [Compound A598, (2S)—N-((6^3S,3S,4S,Z)-1^1-ethyl-3-methoxy-1^2-(2-((S)-1-methoxyethyl)pyridin-3-yl)-10,10-dimethyl-5,7-dioxo-6^1,6^2,6^3,6^4,6^5,6^6-hexahydro-1^1H-8-oxa-2(4,2)-thiazola-1(5,3)-indola-6(1,3)-pyridazinacycloundecaphane-4-yl)-3-methyl-2-(1,3,3-trimethylureido)butanamide]	–	10 to 100 nM	–
CCn1c(-c2cc(N3CCN(C)CC3)cnc2[C@H](C)OC)c2c3cc(ccc31)-c1csc(n1)C[C@H](NC(=O)[C@H](C(C)C)N(C)C(=O)[C@@H]1OCC[C@@H]1c1cccnc1)C(=O)N1CCC[C@H](N1)C(=O)OCC(C)(C)C2 (atropisomer, axis not shown) [Compound A490]	< 10 nM	–	–
CCn1c(-c2cccnc2[C@H](C)OC)c2c3cc(ccc31)-c1csc(n1)C[C@H](NC(=O)[C@H](C(C)C)N(C)C(=O)N(C)CCc1ccncc1)C(=O)N1CCC[C@H](N1)C(=O)OCC(C)(C)C2 (atropisomer, axis not shown) [Compound A557]	–	10 to 100 nM	–
CCn1c(-c2cccnc2[C@H](C)OC)c2c3cc(ccc31)-c1csc(n1)C[C@H](NC(=O)[C@H](C(C)C)N(C)C(=O)N1CCC13CCS(=O)(=O)CC3)C(=O)N1CCC[C@H](N1)C(=O)OCC(C)(C)C2 (atropisomer, axis not shown) [Compound A530]	–	10 to 100 nM	–
CCn1c(-c2cccnc2[C@H](C)OC)c2c3cc(ccc31)-c1csc(n1)C[C@H](NC(=O)[C@H](C(C)C)N(C)C(=O)N1CCO[C@H](CN(C)C)C1)C(=O)N1CCC[C@H](N1)C(=O)OCC(C)(C)C2 (atropisomer, axis not shown) [Compound A590]	< 10 nM	10 to 100 nM	–
CCn1c(-c2cccnc2[C@H](C)OC)c2c3cc(ccc31)-c1cc(O)cc(c1)C[C@H](NC(=O)C1CCC3C1C3(F)F)C(=O)N1CCC[C@H](N1)C(=O)OCC(C)(C)C2 (some centres unmarked) [Compound A181]	–	–	> 10000 nM

Further lines, results first:

IC50 (NCI-H358 (K-Ras G12C))	IC50 (NRAS Q61K)	IC50 (NRAS Q61R)	SMILES
< 10 nM	10 to 100 nM	–	CCn1c(-c2cccnc2[C@H](C)OC)c2c3cc(ccc31)-c1csc(n1)C[C@H](NC(=O)[C@H](C(C)C)N(C)C(=O)N1CC(O)C1)C(=O)N1CCC[C@H](N1)C(=O)OCC(C)(C)C2 (atropisomer, axis not shown) [Compound A358]
< 10 nM	10 to 100 nM	–	CCn1c(-c2cccnc2[C@H](C)OC)c2c3cc(ccc31)-c1csc(n1)C[C@H](NC(=O)[C@H](C(C)C)N(C)C(=O)N1CC([C@@H](CO)OC)C1)C(=O)N1CCC[C@H](N1)C(=O)OCC(C)(C)C2 (atropisomer, axis not shown) [Compound A514]
< 10 nM	10 to 100 nM	–	CCn1c(-c2cccnc2[C@H](C)OC)c2c3cc(ccc31)-c1csc(n1)C[C@H](NC(=O)[C@H](C(C)C)N(C)C(=O)N1CC([C@H](CO)OC)C1)C(=O)N1CCC[C@H](N1)C(=O)OCC(C)(C)C2 (atropisomer, axis not shown) [Compound A515]
–	10 to 100 nM	10 to 100 nM	CCn1c(-c2cccnc2[C@H](C)OC)c2c3cc(ccc31)-c1csc(n1)C[C@H](NC(=O)[C@H](C(C)C)N(C)C(=O)N(C)N(C)C)C(=O)N1CCC[C@H](N1)C(=O)OCC(C)(C)C2 (atropisomer, axis not shown) [Compound A454]
< 10 nM	10 to 100 nM	–	CCn1c(-c2cccnc2[C@H](C)OC)c2c3cc(ccc31)-c1csc(n1)C[C@H](NC(=O)[C@H](C(C)C)N(C)C(=O)N1CCO[C@H](C)C1)C(=O)N1CCC[C@H](N1)C(=O)OCC(C)(C)C2 (atropisomer, axis not shown) [Compound A310]
< 10 nM	–	–	CCn1c(-c2cccnc2[C@H](C)OC)c2c3cc(ccc31)-c1csc(n1)C[C@H](NC(=O)[C@H](C(C)C)N(C)C(=O)N1CC(C3COC3)C1)C(=O)N1CCC[C@H](N1)C(=O)OCC(C)(C)C2 (atropisomer, axis not shown) [Compound A298]
< 10 nM	10 to 100 nM	–	CCn1c(-c2cccnc2[C@H](C)OC)c2c3cc(ccc31)-c1csc(n1)C[C@H](NC(=O)[C@H](C(C)C)N(C)C(=O)N1CC(C(=O)N3CCOCC3)C1)C(=O)N1CCC[C@H](N1)C(=O)OCC(C)(C)C2 (atropisomer, axis not shown) [Compound A543]
< 10 nM	–	–	CCn1c(-c2cccnc2[C@H](C)OC)c2c3cc(ccc31)-c1csc(n1)C[C@H](NC(=O)[C@H](C(C)C)N(C)C(=O)N1CC(N3CCOCC3)C1)C(=O)N1CCC[C@H](N1)C(=O)OCC(C)(C)C2 (atropisomer, axis not shown) [Compound A338]
–	10 to 100 nM	–	CCn1c(-c2cccnc2[C@H](C)OC)c2c3cc(ccc31)-c1csc(n1)C[C@H](NC(=O)[C@H](C(C)C)N(C)C(=O)N1CC(S(C)(=O)=O)C1)C(=O)N1CCC[C@H](N1)C(=O)OCC(C)(C)C2 (atropisomer, axis not shown) [Compound A383]
–	10 to 100 nM	–	CCn1c(-c2cccnc2[C@H](C)OC)c2c3cc(ccc31)-c1csc(n1)C[C@H](NC(=O)[C@H](C(C)C)N(C)C(=O)N1CC[C@H](O)C1)C(=O)N1CCC[C@H](N1)C(=O)OCC(C)(C)C2 (atropisomer, axis not shown) [Compound A401]
–	10 to 100 nM	–	CCn1c(-c2cccnc2[C@H](C)OC)c2c3cc(ccc31)-c1csc(n1)C[C@H](NC(=O)[C@H](C(C)C)N(C)C(=O)N(C)C1COC1)C(=O)N1CCC[C@H](N1)C(=O)OCC(C)(C)C2 (atropisomer, axis not shown) [Compound A334]
–	10 to 100 nM	–	CCn1c(-c2cccnc2[C@H](C)OC)c2c3cc(ccc31)-c1csc(n1)C[C@H](NC(=O)[C@H](C(C)C)N(C)C(=O)N1CCCC[C@H](N(C)C)C1)C(=O)N1CCC[C@H](N1)C(=O)OCC(C)(C)C2 (atropisomer, axis not shown) [Compound A491]
